“And” between values parts separate entries of the source, which are not always exact repeats. Equal entries are not always repeated. “Also recorded” adds a separate entry of the source. Where two headings read alike, the source gives them in different places.
Columns and labels:
[1] = test system: Chinese hamster ovary (CHO) cells; assay: In vitro chemotherapeutic activity, colony forming assay, CHO cells; type: cell-based; conditions: at the 50% survival level; 37° C. for 24 hours
Method: (§1) 4.1. In vitro chemotherapeutic activity. Chinese hamster ovary (CHO) and human colon carcinoma (HCT-116) cells were treated with different concentrations of taxol, taxoltere metro, or taxoltere p-nip at 37° C. for 24 hours. Cell survival was evaluated by the colony forming assay.

[2] = test system: human colon carcinoma (HCT-116) cells; assay: In vitro chemotherapeutic activity, colony forming assay, HCT-116 cells; type: cell-based; conditions: at the 1% survival level; 37° C. for 24 hours
Method: as §1

CHO cells = assay: In vitro chemotherapeutic radiosensitization, CHO cells; type: cell-based, Chinese hamster; conditions: for sensitizer enhancement ratio (SER): irradiated after two hours incubation; for radiosensitization of CHO cells (in words): different radiation doses
HCT-116 cells = assay: In vitro chemotherapeutic radiosensitization, HCT-116 cells; type: cell-based, human; conditions: for sensitizer enhancement ratio (SER): irradiated after two hours incubation; for radiosensitization of HCT-116 cells (in words): different radiation doses
[3] = test system: mouse mammary adenocarcinoma (MTG-B); assay: In vivo chemotherapeutic activity in MTG-B tumor bearing mice; set-up: species or system C3H/Hej mice
MTG-B tumor = type: in vivo, C3H/Hej mice
C3H/HeJ mice [4] = assay: In vivo drug toxicity (acute toxicity); conditions: for LD50/5: C3H/HeJ mice
MTG-B mammary tumors = test system: MTG-B mammary tumors; set-up: species or system mice; conditions: mouse, in vivo, ip
C3H/HeJ mice [5] = conditions: mouse, in vivo
[6] = In vivo drug toxicity (acute toxicity); conditions: C3H/HeJ, mouse, in vivo, ip

Molecule	times more effective than taxol in killing CHO cells [1]	times more effective than taxol in killing HCT-116 cells [2]	radiosensitization of CHO cells (in words) (CHO cells)	radiosensitization of HCT-116 cells (in words) (HCT-116 cells)	increase of survival time / life span ([3]; mouse, in vivo) [%]	survival time ([3]; mouse, in vivo) [days]	times more effective than taxol under equitoxic conditions ([3]; mouse, in vivo) [times]	tumor doubling times (in words) ([3]; mouse, in vivo)	tumor doubling time (TDT) (MTG-B tumor; mouse, in vivo, ip)	LD50/5 (C3H/HeJ mice [4]; i.p.) [mg/kg]	also measured
N-debenzoyl-N-(t-butylcarbamoyl)-7-(metronidazoleoxycarbonyl) taxol [taxoltere metro]	about 15 times	about 10 times	strongly radiosensitize	strongly radiosensitize	123	29	4	again greatly extended	20.5 days and 29.5 days	249.67	sensitizer enhancement ratio (SER) (CHO cells; 100 nM): 2.3; sensitizer enhancement ratio (SER) (HCT-116 cells; 10 nM): 1.2; Severe toxic symptoms (constriction of pupils, rough hair) (C3H/HeJ mice [4]; 24 hours after drug administration, high drug dose levels): not
N-debenzoyl-N-(t-butylcarbamoyl)-3′-desphenyl-3′-(4-nitrophenyl) taxol [taxoltere p-nip]	about 45 times	about 30 times	strongly radiosensitize	strongly radiosensitize	1015	145	33	even further extended; also recorded: again greatly extended	36.5 days and 65 days	79.13	sensitizer enhancement ratio (SER) (CHO cells; concentration not given): 1.6; sensitizer enhancement ratio (SER) (HCT-116 cells; concentration not given): 1.5; tumor doubling time (MTG-B tumor; mouse, in vivo, iv): 52 days; cure rate (MTG-B mammary tumors): 40% and 75%; LD50/5 (C3H/HeJ mice [4]; i.v.): 134.16 mg/kg
CC(=O)O[C@H]1C(=O)[C@@]2(C)[C@H]([C@H](OC(=O)c3ccccc3)[C@]3(O)C[C@H](OC(=O)[C@H](O)[C@@H](NC(=O)c4ccccc4)c4ccccc4)C(C)=C1C3(C)C)[C@]1(OC(C)=O)CO[C@@H]1C[C@@H]2O [taxol, reference compound]			does not	does not							survival time ([3]; 40% of the LD50/5 dose, MTG-B tumor-bearing mice, control 13 days): 17 days; increase of survival time / life span ([3]; 40% of the LD50/5 dose, versus control 13 days): 31%; tumor doubling time (TDT) (MTG-B tumor; single dose i.p., 40% of LD50/5, drug alone, control 3.5 days): 14.5 days; tumor doubling time (TDT) (MTG-B tumor; single dose i.p., 40% of LD50/5, plus 22 Gy Xray one day later, 22 Gy alone 8.5 days): 19.5 days; Severe toxic symptoms (constriction of pupils, rough hair) (C3H/HeJ mice [5]): observed; LD50 at 5 days [6]: 141 mg/kg
